These results are taken from patent publication US20200182861A1, “METHOD FOR DIFFERENTIATION OF PLURIPOTENT STEM CELLS INTO VASCULAR BED CELLS” (Hoffmann-La Roche Inc., priority 2011, published 2020).

The test system of assay [1] is HL60 cells with SC-derived ECs. The assay is described as follows: Leukocyte-endothelial adhesion assay. In kind it is cell-based, human. Particulars: SC-derived ECs stimulated, 1 nM. The method, then:
FIG. 16: Leukocyte-endothelial adhesion assay. Activated endothelial cells present adhesion molecules for the recruitment leukocytes. The response to 1 nM TNFα was studied by co-cultivating Calcein-stained HL60 cells with SC-derived ECs. Adhesion of HL60 cells to endothelial cells was quantified by measuring the fluorescence intensity.
2×10^4 Stem Cell-derived endothelial cells/well were seeded onto 96-well plates and cultured for 2 days in EGM-2 medium (Lonza) until confluence. Media was changed with EGM-2 medium supplemented with 1 nM TNFα (R&D Systems). SC-derived ECs were TNFα-stimulated for 4 hours. Thereafter 1.5×10^5 Calcein-labeled HL60 cells were added to each 96 well. After an incubation of one hour medium was removed and Sc-ECs were PBS-washed. Lyse the plate with 1% NP-40 detergent solution for 15 minutes. Supernatants were transferred into optiplates and fluorescence measured in a microplate reader.
To determine whether the differentiation system generates bona fide ECs, we challenged the SC-derived ECs with proinflammatory cytokines and analyzed for an activated expression of effectors of immune cell migration. […] We further confirmed by flow cytometry the presence of ICAM1 and E-SELECTIN upon TNF-α as well as […] stimulation (FIG. 16). HLA-ABC expression served as control to analyze a general und cell type unspecific response to proinflammatory cytokines. […]

The subject of assay [2] is ICAM1. Put plainly: Pro-inflammatory cytokine response assay, cell-based ELISA. More on the design: species or system human. Particulars: 1 nM, SC-derived ECs. The method, then:
FIG. 15A: Pro-inflammatory cytokine response assay. SC-derived ECs upregulate the expression of the adhesion molecule ICAM1 upon pro-inflammatory cytokine administration. Cell-based ELISA was used to measure the activation of SC-derived endothelial cells in response to 1 nM TNFα.
(§1) 20 000 Stem Cell-derived endothelial cells/well were seeded onto 96-well plates and cultured for 2 days in EGM-2 medium (Lonza) until confluence. Media was changed with EGM-2 medium supplemented with 1 nM TNFα (R&D Systems). After an incubation of 24 hours SC-derived ECs were briefly PBS-washed and PFA-fixed Primary antibodies for human anti-ICAM and anti-E-Selectin were purchased from R&D Systems. An anti-mouseIgG/biotinylated (Amersham) as secondary antibody and a Streptavidin/Peroxidase complex (Amersham) were used. Luminescence was quantified in a microplate reader.
(In an ELISA, binding on a coated surface is turned into a signal by an enzyme label.)

Assay [3] concerns E-SELECTIN
The description is as above. Particulars: 1 nM, SC-derived ECs. More on the design: species or system human. The method, then: FIG. 15B: Pro-inflammatory cytokine response assay. SC-derived ECs upregulate the expression of the adhesion molecule E-SELECTIN upon pro-inflammatory cytokine administration. Cell-based ELISA was used to measure the activation of SC-derived endothelial cells in response to 1 nM TNFα.
as §1

Regarding TNFα, the “adhesion / recruitment of HL60 leukocytes” value in assay [1] is recorded as “significantly enhanced”. Besides, the ICAM1 expression result in assay [2] is on record as “significantly upregulated”. The E-SELECTIN expression result in assay [3] is “significantly upregulated”.
